Experimental data taken from PubChem BioAssay (NCI).
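Five concentrations, 48 hours, 96-well plates. Abbreviation: GI50, concentration required for 50% inhibition of growth. TGI marks complete inhibition of growth.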

Legend:
Assay in all cases: NCI tumour cell line growth inhibition, 48 h
SNB-78 CNS = system: SNB-78 CNS
SK-OV-3 ovarian = system: SK-OV-3 ovarian
DMS 273 small cell lung = system: DMS 273 small cell lung
HCT-15 colon = system: HCT-15 colon
NCI-H226 lung = system: NCI-H226 lung
DMS 114 small cell lung = system: DMS 114 small cell lung
OVCAR-8 ovarian = system: OVCAR-8 ovarian
XF 498 CNS = system: XF 498 CNS
SF-539 CNS = system: SF-539 CNS
A498 renal = system: A498 renal
U251 CNS = system: U251 CNS
OVCAR-3 ovarian = system: OVCAR-3 ovarian
HCT-116 colon = system: HCT-116 colon
NCI-H23 lung = system: NCI-H23 lung
KM20L2 colon = system: KM20L2 colon
HOP-92 NSCLC = system: HOP-92 NSCLC
NCI/ADR-RES ovarian = system: NCI/ADR-RES ovarian
SN12C renal = system: SN12C renal
RPMI-8226 leukemia = system: RPMI-8226 leukemia
COLO 205 colon = system: COLO 205 colon
IGROV1 ovarian = system: IGROV1 ovarian
SK-MEL-5 melanoma = system: SK-MEL-5 melanoma
HCC-2998 colon = system: HCC-2998 colon
P388/ADR leukemia = system: P388/ADR leukemia
A549 NSCLC = system: A549 NSCLC
CAKI-1 renal = system: CAKI-1 renal
P388 leukemia = system: P388 leukemia
HL-60(TB) leukemia = system: HL-60(TB) leukemia
OVCAR-4 ovarian = system: OVCAR-4 ovarian
MALME-3M melanoma = system: MALME-3M melanoma
K-562 leukemia = system: K-562 leukemia
SNB-75 CNS = system: SNB-75 CNS
HOP-18 NSCLC = system: HOP-18 NSCLC
SK-MEL-28 melanoma = system: SK-MEL-28 melanoma
MOLT-4 leukemia = system: MOLT-4 leukemia
KM12 colon = system: KM12 colon
RXF 393 renal = system: RXF 393 renal
HT29 colon = system: HT29 colon
EKVX NSCLC = system: EKVX NSCLC
SN12K1 renal = system: SN12K1 renal
NCI-H460 lung = system: NCI-H460 lung
NCI-H522 lung = system: NCI-H522 lung
HOP-62 NSCLC = system: HOP-62 NSCLC
LOX IMVI melanoma = system: LOX IMVI melanoma
UACC-257 melanoma = system: UACC-257 melanoma
M19-MEL melanoma = system: M19-MEL melanoma
UACC-62 melanoma = system: UACC-62 melanoma
MCF7 breast = system: MCF7 breast
SK-MEL-2 melanoma = system: SK-MEL-2 melanoma
SNB-19 CNS = system: SNB-19 CNS
CCRF-CEM leukemia = system: CCRF-CEM leukemia
OVCAR-5 ovarian = system: OVCAR-5 ovarian
SF-295 CNS = system: SF-295 CNS
SW-620 colon = system: SW-620 colon
DLD-1 colon = system: DLD-1 colon
UO-31 renal = system: UO-31 renal
SF-268 CNS = system: SF-268 CNS
M14 melanoma = system: M14 melanoma
TK-10 renal = system: TK-10 renal
LXFL 529 NSCLC = system: LXFL 529 NSCLC
SR leukemia = system: SR leukemia
786-0 renal = system: 786-0 renal
ACHN renal = system: ACHN renal

C=C(OC1C(C)=C2C(C1OC(=O)CCCCCCC)C(C)(OC(C)=O)CC(OC(=O)CCC)C1(O)C2OC(=O)C1(C)O)/C(C)=C/C (stereo unspecified)
TGI (SNB-78 CNS): 19100 nM
TGI (SK-OV-3 ovarian): 16900 nM
TGI (DMS 273 small cell lung): 453 nM
GI50 (HCT-15 colon): 84.2 nM
TGI (HCT-15 colon): 15000 nM
GI50 (NCI-H226 lung): < 0.1 nM
TGI (NCI-H226 lung): 226 nM
TGI (DMS 114 small cell lung): 207 nM
GI50 (OVCAR-8 ovarian): 0.243 nM
TGI (OVCAR-8 ovarian): 5980 nM
TGI (XF 498 CNS): 8970 nM
GI50 (SF-539 CNS): < 0.1 nM
TGI (SF-539 CNS): 8010 nM
TGI (A498 renal): 3290 nM
GI50 (U251 CNS): < 0.1 nM
TGI (U251 CNS): 1730 nM
GI50 (OVCAR-3 ovarian): < 0.1 nM
GI50 (HCT-116 colon): < 0.1 nM
TGI (HCT-116 colon): 0.151 nM
GI50 (NCI-H23 lung): < 0.1 nM
TGI (NCI-H23 lung): 3820 nM
TGI (KM20L2 colon): 1230 nM
TGI (HOP-92 NSCLC): 3090 nM
TGI (NCI/ADR-RES ovarian): 6510 nM
GI50 (SN12C renal): 10.5 nM
TGI (SN12C renal): 1910 nM
GI50 (RPMI-8226 leukemia): < 0.1 nM
TGI (RPMI-8226 leukemia): 25.6 nM
GI50 (COLO 205 colon): < 0.1 nM
TGI (COLO 205 colon): 101 nM
TGI (IGROV1 ovarian): 11000 nM
GI50 (SK-MEL-5 melanoma): < 0.1 nM
GI50 (HCC-2998 colon): < 0.1 nM
TGI (HCC-2998 colon): 778 nM
TGI (P388/ADR leukemia): 1840 nM
GI50 (A549 NSCLC): < 0.1 nM
TGI (A549 NSCLC): 6160 nM
GI50 (CAKI-1 renal): 0.475 nM
TGI (CAKI-1 renal): 61.5 nM
TGI (P388 leukemia): 993 nM
GI50 (HL-60(TB) leukemia): < 0.1 nM
GI50 (OVCAR-4 ovarian): < 0.1 nM
TGI (OVCAR-4 ovarian): 512 nM
GI50 (MALME-3M melanoma): 0.907 nM
TGI (MALME-3M melanoma): 131 nM
GI50 (K-562 leukemia): < 0.1 nM
TGI (K-562 leukemia): 5380 nM
GI50 (SNB-75 CNS): < 0.1 nM
TGI (SNB-75 CNS): 1610 nM
TGI (HOP-18 NSCLC): 9190 nM
TGI (SK-MEL-28 melanoma): 3970 nM
GI50 (MOLT-4 leukemia): 0.402 nM
TGI (MOLT-4 leukemia): 177 nM
GI50 (KM12 colon): < 0.1 nM
TGI (KM12 colon): 3630 nM
TGI (RXF 393 renal): 1530 nM
GI50 (HT29 colon): < 0.1 nM
TGI (HT29 colon): 1800 nM
GI50 (EKVX NSCLC): < 0.1 nM
TGI (EKVX NSCLC): 896 nM
TGI (SN12K1 renal): 78.6 nM
GI50 (NCI-H460 lung): < 0.1 nM
TGI (NCI-H460 lung): 46 nM
TGI (NCI-H522 lung): 1110 nM
GI50 (HOP-62 NSCLC): < 0.1 nM
GI50 (LOX IMVI melanoma): < 0.1 nM
GI50 (UACC-257 melanoma): 0.269 nM
TGI (UACC-257 melanoma): 11900 nM
TGI (M19-MEL melanoma): 1290 nM
TGI (UACC-62 melanoma): 27.3 nM
TGI (MCF7 breast): 191 nM
GI50 (SK-MEL-2 melanoma): < 0.1 nM
TGI (SK-MEL-2 melanoma): 64.2 nM
TGI (SNB-19 CNS): 3160 nM
GI50 (CCRF-CEM leukemia): < 0.1 nM
TGI (CCRF-CEM leukemia): 6240 nM
GI50 (OVCAR-5 ovarian): < 0.1 nM
TGI (OVCAR-5 ovarian): 8640 nM
GI50 (SF-295 CNS): < 0.1 nM
TGI (SF-295 CNS): 3220 nM
GI50 (SW-620 colon): < 0.1 nM
TGI (SW-620 colon): 2050 nM
TGI (DLD-1 colon): 16400 nM
GI50 (UO-31 renal): 170 nM
TGI (UO-31 renal): 614 nM
GI50 (SF-268 CNS): < 0.1 nM
TGI (SF-268 CNS): 16700 nM

Cn1c(=O)c2nc(-c3ccc(Cl)cc3)oc2n(C)c1=O
TGI (SNB-78 CNS): > 100000 nM
TGI (DMS 273 small cell lung): > 100000 nM
TGI (HCT-15 colon): > 100000 nM
TGI (M14 melanoma): > 100000 nM
TGI (NCI-H226 lung): > 100000 nM
TGI (DMS 114 small cell lung): > 100000 nM
TGI (OVCAR-8 ovarian): > 100000 nM
TGI (XF 498 CNS): > 100000 nM
TGI (SF-539 CNS): > 100000 nM
TGI (A498 renal): > 100000 nM
TGI (U251 CNS): > 100000 nM
TGI (OVCAR-3 ovarian): > 100000 nM
TGI (HCT-116 colon): > 100000 nM
TGI (NCI-H23 lung): > 100000 nM
TGI (KM20L2 colon): > 100000 nM
TGI (TK-10 renal): > 100000 nM
TGI (HOP-92 NSCLC): > 100000 nM
TGI (SN12C renal): > 100000 nM
TGI (RPMI-8226 leukemia): > 100000 nM
TGI (SK-MEL-5 melanoma): > 100000 nM
TGI (HCC-2998 colon): > 100000 nM
TGI (A549 NSCLC): > 100000 nM
TGI (CAKI-1 renal): > 100000 nM
TGI (LXFL 529 NSCLC): > 100000 nM
TGI (HL-60(TB) leukemia): > 100000 nM
TGI (SR leukemia): > 100000 nM
TGI (OVCAR-4 ovarian): > 100000 nM
TGI (MALME-3M melanoma): > 100000 nM
TGI (K-562 leukemia): > 100000 nM
TGI (SNB-75 CNS): > 100000 nM
TGI (HOP-18 NSCLC): > 100000 nM
TGI (SK-MEL-28 melanoma): > 100000 nM
TGI (MOLT-4 leukemia): > 100000 nM
TGI (KM12 colon): > 100000 nM
TGI (RXF 393 renal): > 100000 nM
TGI (HT29 colon): > 100000 nM
TGI (EKVX NSCLC): > 100000 nM
TGI (786-0 renal): > 100000 nM
TGI (NCI-H460 lung): > 100000 nM
TGI (NCI-H522 lung): > 100000 nM
TGI (LOX IMVI melanoma): > 100000 nM
TGI (UACC-257 melanoma): > 100000 nM
TGI (M19-MEL melanoma): > 100000 nM
TGI (UACC-62 melanoma): > 100000 nM
TGI (SK-MEL-2 melanoma): > 100000 nM
TGI (SNB-19 CNS): > 100000 nM
TGI (CCRF-CEM leukemia): > 100000 nM
TGI (OVCAR-5 ovarian): > 100000 nM
TGI (SF-295 CNS): > 100000 nM
TGI (ACHN renal): > 100000 nM
TGI (SW-620 colon): > 100000 nM
TGI (DLD-1 colon): > 100000 nM
TGI (UO-31 renal): > 100000 nM
TGI (SF-268 CNS): > 100000 nM
